From ChEMBL document CHEMBL1156829 (Proc Natl Acad Sci U S A, 2008)
Numbered stars: 1 amine (or outer) side, 2 acyl side, 3 side chain; on linkers, the order of the positions; unused ones are H or OH. Square brackets hold non-standard residues; d marks the D form. Peptide text beside a SMILES is read from it. * marks the point of attachment. X1 = CCC(=O)CC(O)C[C@@H](C)C[C@H](N[*:1])C(=O)[*:2]; Hexenoyl(2E,4S-Me) = CC[C@H](C)/C=C/C(=O)*; Leu(3R-OH) = CC(C)[C@@H](O)[C@H](N)C(=O)O; NH((S)CH(Me)CH2NMe2) = C[C@@H](CN(C)C)N*; Pro(4S-Me) = C[C@@H]1CN[C@H](C(=O)O)C1; Aib = CC(C)(N)C(=O)O; βAla = NCCC(=O)O

Experiments:
[1] = NOVARTIS: Cytotoxicity against human hepatocellular carcinoma cell line (Huh7); format: toxicity, cell-based, Huh-7; details: Huh7 cells (hepatocellular carcinoma cell line)
Plasmodium falciparum [2] = experiment: NOVARTIS: Inhibition of Plasmodium falciparum W2 (drug-resistant) proliferation in erythrocyte-based infection assay; format: functional, organism-based; details: Plasmodium falciparum, W2; read-out: EC50
Plasmodium falciparum [3] = experiment: NOVARTIS: Inhibition of Plasmodium falciparum 3D7 (drug-susceptible) proliferation in erythrocyte-based infection assay; format: functional, organism-based; details: Plasmodium falciparum, 3D7

Structure (SMILES) | CC50 [1] [µM] | EC50 (Plasmodium falciparum [2]) [µM] | EC50 (Plasmodium falciparum [3]) [µM]
COc1c2occc2c(OC)c2c(=O)cc(C(Cl)(Cl)Cl)oc12 | > 100 | 0.255 | 0.646
NCCCNC(=O)COC(c1ccccc1)c1cccnc1Cl (stereo not given) | > 10 | 0.1 | 0.0817
CCC(=O)CC(O)C[C@@H](C)C[C@H](NC(=O)[C@@H]1C[C@H](C)CN1C(=O)/C=C/[C@@H](C)CC)C(=O)N[C@H](C(=O)NC(C)(C)C(=O)N[C@@H](CC(C)C)C(=O)N[C@@H](CC(C)C)C(=O)NC(C)(C)C(=O)NC(C)(C)C(=O)NCCC(=O)N[C@@H](C)CN(C)C)[C@H](O)C(C)C (stereo partly drawn) ({Hexenoyl(2E,4S-Me)}-[Pro(4S-Me)][X1][Leu(3R-OH)][Aib]LL[Aib][Aib][βAla]-{NH((S)CH(Me)CH2NMe2)}) | 6.47 | 0.651 | 0.194
CC(C)(C)CC(C)(C)Nc1c(-c2ccccc2OC(=O)c2ccco2)nc2ccccn12 | > 100 | 4.96 | > 12.5
COC(=O)C1=C(C)NC2=C(C(=O)CC(c3ccccc3Cl)C2)C1c1ccc(OC)c(OC)c1 (stereo not given) | > 100 | 0.478 | 1.29
CCOC(=O)C1=C(C)N/C(=C\c2cc(C)n(-c3cccc(Br)c3)c2C)C1=O | > 10 | > 0.926 | > 1.25
Nc1nc(NCC2CCC(CNS(=O)(=O)c3cccc4ccccc34)CC2)nc2ccccc12 (stereo not given) | > 10 | 0.571 | 0.684
Oc1ccc(-c2cncc(NCc3ccc4c(c3)OCO4)c2)cc1 | > 10 | 0.96 | 1.17
COC(=O)C1=C(C)NC2=C(C(=O)CC(c3ccc(OC)c(OC)c3)C2)C1c1ccc(Br)cc1 (stereo not given) | > 100 | 0.181 | 0.45
O=C(NN1CCOCC1)c1ccc(Br)cc1 | > 10 | > 0.997 | > 1.51
O=C1N(c2ccccc2)C[C@@H]2C[C@@H](c3ccc4nonc4c3)N3CCC[C@@]123 | > 22.1 | 2.5 | 2.37
CCCCCCCCCCOC(=O)Cn1c(C)[n+](C)c2ccccc21 | 58.1 | 0.644 | > 12.5
Cc1ccc(S(=O)(=O)NNC(=O)C2CCC(c3ccccc3)CC2)c2nsnc12 (stereo not given) | > 10 | > 1.25 | 0.727
CC1CCCCN1CCCNc1ncc(C(=O)NCc2ccccc2)c(NCC2CCCCC2)n1 (stereo not given) | > 10 | > 0.759 | 0.582
COC(=O)[C@@H]1C[C@@H](NC(=O)c2ccccc2F)CN1CC(c1ccccc1)c1ccccc1 | > 10 | > 1.18 | 1.06
CCC(C)(O)C(=O)O[C@H]1C(=O)OC2CC3C(C)=C[C@H](O)[C@@H](O)[C@]3(C)C3C24CO[C@]3(O)[C@H](O)[C@H](C)C14 (stereo not given in full) | > 6.25 | 0.215 | 0.227
ClC12CC3CC(C1)CC(n1nnc4ccccc41)(C3)C2 | > 10 | > 1.02 | > 1.25
O=[N+]([O-])c1ccc(-c2ccc(C=NNc3ccccn3)o2)cc1 | > 100 | 2.29 | 2.43
CCOc1ccc(-c2nc(NC(=O)Cc3cccc(OC)c3)sc2C)cc1 | > 10 | 0.417 | 0.273
CCn1c(SCC(=O)Nc2cccc(C)c2)nnc1-c1ccccc1 | > 10 | 0.0267 | > 1.25
N#C/C(=C\NC1CCN(Cc2ccccc2)CC1)C(=O)c1cccs1 | > 10 | 1.62 | 0.22
FC(F)(F)c1cccc(NC(=S)N2CCSC2c2ccc(Br)cc2)c1 (stereo not given) | 43.3 | 0.117 | 0.217

Structure (SMILES) | CC50 [1] [µM] | EC50 (Plasmodium falciparum [2]) [µM] | EC50 (Plasmodium falciparum [3]) [µM]
COc1ccc(C2=C(c3ccc(OC)cc3)C3(c4ccccc4)C(=O)C2(c2ccccc2)C2C(=O)N(c4ccccc4[N+](=O)[O-])C(=O)C23)cc1 (stereo not given) | > 100 | 0.58 | 1.19
CCOC(=O)c1c(CN2CCN(CC#N)CC2)n(Cc2ccccc2)c2cc(Br)c(O)cc12 | > 100 | 0.884 | 1.18
CC(=O)N(C1=C(N(C)C)C(=O)c2ccccc2C1=O)c1cccc(O)c1 | > 10 | 0.0582 | 0.0467
CCOc1cccc2c1N(C(=O)c1cccc([N+](=O)[O-])c1)C(C)(C)C(=S)C2=C1SC(C(=O)OC)=C(C(=O)OC)S1 | > 10 | 0.444 | > 1.25
COc1cc2c(cc1OC)C(COc1ccc(F)cc1)N(C(=O)c1ccc(OC(C)C)cc1)CC2 (stereo not given) | > 100 | 1.4 | 0.155
CC(C)CNC(=O)c1cc(NC(=O)c2cccs2)ccc1N1CCc2ccccc2C1 | 0.893 | 0.0327 | 0.349
CCOc1ccc2[nH]c(=O)c(C(c3nnnn3CCOC)N3CCCC3)cc2c1 (stereo not given) | > 100 | 1.05 | > 12.5
Oc1ccc(-c2nc(-c3ccc4oc5ccc(-c6[nH]c(-c7ccc(O)cc7)nc6-c6ccccc6)cc5c4c3)c(-c3ccccc3)[nH]2)cc1 | > 100 | 8.28 | 3.3
O=C(O)C1Cc2c([nH]c3ccccc23)C(c2ccc(Cl)cc2Cl)N1 (stereo not given) | > 100 | 0.688 | 1.02
CN1C2CCC1C(=Cc1ccsc1)C(=O)C2=Cc1ccsc1 | > 100 | 0.748 | 0.676
CC(C)Cc1ccc(-c2csc(NC(=O)C3C4CCC(C4)C3C(=O)O)n2)cc1 (stereo not given) | > 100 | 1.85 | 0.772
O=C(NNc1ccccc1F)C1CCC1 | > 10 | 0.0406 | 0.49
CC1=CC(=Cc2sc3ccccc3[n+]2C)C=C(C)O1 | 8.35 | 0.0237 | 0.0313
Cc1nc2c(C)cccc2c(O)c1CC=C(Cl)Cl | > 100 | 0.609 | 1.11
Cc1ccc(N2C3c4ccccc4N(S(=O)(=O)c4ccc(C)cc4)C2c2ccccc2N3S(=O)(=O)c2ccc(C)cc2)cc1 | > 10 | 1.49 | 0.72
COCCNc1cc(-c2ccccn2)nc(-c2ccccn2)n1 | > 10 | 0.624 | 0.44
CCOC(=O)C1=C(C)NC2=C(C(=O)CCC2)C1c1cc(Br)c(O)c(OCC)c1 (stereo not given) | > 10 | > 1.76 | > 0.51
COc1ccc(C=C2N=C(c3ccc(Cl)cc3)N(c3cc(Cl)ccc3C)C2=O)cc1OC | > 100 | 1.31 | 3.48
OCCc1cn(-c2ccccc2)c2ccccc12 | > 10 | 0.226 | 0.717
CC1CCN(C2=C(NC3CCCC3)C(=O)c3ccccc3C2=O)CC1 | 24.4 | 0.0142 | 0.00908
COc1ccc(C2C(C(=O)Nc3cccc(C(F)(F)F)c3)c3ccccc3C(=O)N2C2CCCCC2)cc1 (stereo not given) | > 100 | 1.13 | 1.83
CC(=C(Cl)Cl)/C(Br)=C(\Br)CO | > 10 | 0.0595 | 0.179

Structure (SMILES) | CC50 [1] [µM] | EC50 (Plasmodium falciparum [2]) [µM] | EC50 (Plasmodium falciparum [3]) [µM]
CCc1ccc(NC(=O)c2sc3nc4c(c(-c5ccco5)c3c2N)CCCC4)cc1 | > 100 | 1.07 | 1.82
CN(C)c1ccc(C2N(C)c3ccccc3N2C)cc1 | > 100 | 0.551 | 0.913
Cc1cc2c(cc1C)NC(c1ccc(Cl)c(F)c1)C1=C(CC(C)(C)CC1=O)N2 (stereo not given) | 64.5 | 1 | 1.07
CC(=O)Nc1ccc(N2C(=O)CSC2c2ccc(Br)cc2)cc1 (stereo not given) | > 100 | 0.865 | 2.33
O=[N+]([O-])c1cccc2c1nnn2C12CC3CC(CC(O)(C3)C1)C2 | > 100 | 0.245 | 0.536
CC(=O)N(C1=C(N2CCCC2)C(=O)c2ccccc2C1=O)c1ccccc1C | 11.5 | 0.0319 | 0.0839
CCN(CC)CCNc1nc(C=Cc2ccc(Cl)cc2)nc2cc3ccccc3cc12 | 22.5 | 0.193 | 0.128
COCCOC(=O)C1=C(C)NC2=C(C(=O)CC(c3ccc(OC)cc3)C2)C1c1ccc(F)cc1 (stereo not given) | > 100 | 0.059 | 0.161
N=c1c2ccccc2nnn1-c1cccc(C(F)(F)F)c1 | > 10 | 0.308 | 0.134
CCC(C)(C)c1ccc(Oc2ccc(NC(=O)c3ccc([N+](=O)[O-])o3)cc2)cc1 | 57.6 | 6.51 | 7.67
COc1ccc(-c2c[n+](CC(=O)c3ccccc3Cl)c3n2CCC3)cc1 | > 100 | 1.29 | 1.07
C=CC1CN2CCC1CC2C(OC(C)=O)c1ccnc2ccc(OC)cc12 (stereo not given) | > 100 | 0.213 | 0.24
COc1cccc(N2CCN(CCNCCc3ccccc3)[C@@H](Cc3ccc(O)cc3)C2)c1 | > 10 | 0.397 | 0.564
O=C1NCCCCC1N(Cc1cccc(Oc2ccccc2)c1)C(=O)c1ccc(F)cc1 (stereo not given) | > 10 | > 1.25 | > 1.06
CCOc1ccccc1NC(=O)CN1CCN(C(=O)c2ccco2)CC1 | > 100 | 12 | 5.46
C[n+]1c(C=Cc2ccc(F)cc2)ccc2ccccc21 | > 100 | 11.1 | 8.11
Cc1ccc(NC(C)c2nc3ccccc3c(=O)n2CCOC2CCCCO2)cc1C (stereo not given) | > 2.7 | 1.03 | 0.799
COc1cc(CN2CCC3(CC2)CC3C(=O)NCCc2ccccc2OC)ccc1O (stereo not given) | > 100 | 0.739 | 2.35
CC1=C(C(=O)OC(C)C)C(c2ccccc2Cl)C2=C(CC(c3ccccc3)CC2=O)N1 (stereo not given) | > 64.2 | 0.0384 | 0.297
Cc1nc(N2CCC(C)CC2)c2c(C)c(C(=O)Nc3ccc(F)cc3)sc2n1 | > 10 | > 0.912 | 0.792
CN1[C@@H](C(=O)Nc2ccc3c(c2)OCO3)C[C@@H](c2ccc(F)cc2)NS1(=O)=O | > 10 | > 1.57 | 1.96
